The target of the assay is human autotaxin (ATX) (Homo sapiens (Human), UniProt Q13822). Description: Human Autotaxin Assay. In kind it is biochemical. The settings on record: concentrated conditioned media from Hep3B cells; LPC substrate, choline release. The essentials: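 Autotaxin source: Hep3B conditioned medium concentrated 20-fold, preincubated with compound 15 min at 37° C in lyso-PLD buffer (100 mM Tris pH 9, 500 mM NaCl, 5 mM MgCl2, 5 mM CaCl2, 0.05% Triton X-100, ±0.2% fatty-acid-free HSA). 100 uM LPC (14:0) then added, 1.5-3 hours at 37° C; choline release measured.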

As usually defined, the IC50 is the concentration at which inhibition is half-maximal. Read a high IC50 as a need for much substance. Consider `Cc1c(Sc2cccc(C(=O)O)c2)c2ccc(Cl)c(F)c2n1CC(=O)N1CCc2c(F)cc(F)cc21` [Compound 1-70, 3-((6-Chloro-1-(2-(4,6-difluoroindolin-1-yl)-2-oxoethyl)-7-fluoro-2-methyl-1H-indol-3-yl)thio)benzoic acid], for which the IC50 was at most 500 nM.
As for `Cc1c(Sc2cccc(C(=O)O)c2)c2ccc(Cl)c(F)c2n1CC(=O)N(C)c1ccccc1` [Compound 1-8, 3-((6-Chloro-7-fluoro-2-methyl-1-(2-(methyl(phenyl)amino)-2-oxoethyl)-1H-indol-3-yl)thio)benzoic acid], the figure is 500 to 3000 nM; as for `Cc1c(Sc2cccc(C(=O)O)c2)c2ccc(Cl)c(F)c2n1CC(=O)N1Cc2ccccc2C1` [Compound 1-91, 3-((6-Chloro-7-fluoro-1-(2-(isoindolin-2-yl)-2-oxoethyl)-2-methyl-1H-indol-3-yl)thio)benzoic acid], at most 500 nM.
As to `Cc1c(Sc2cccc(C(=O)O)c2)c2ccc(Cl)c(F)c2n1CC(=O)N1CCC(Cc2ccncc2)CC1` [Compound 1-63, 3-((6-Chloro-7-fluoro-2-methyl-1-(2-oxo-2-(4-(pyridin-4-ylmethyl)piperidin-1-yl)ethyl)-1H-indol-3-yl)thio)benzoic acid], the IC50 was at most 500 nM.
On to `Cc1c(Sc2cccc(C(=O)O)c2)c2ccc(Cl)c(F)c2n1CC(=O)N1CCC2(CC2)C1` [Compound 1-95, 3-((6-Chloro-7-fluoro-2-methyl-1-(2-oxo-2-(5-azaspiro[2.4]heptan-5-yl)ethyl)-1H-indol-3-yl)thio)benzoic acid], for which the half-maximal inhibitory concentration (IC50) is at most 500 nM.
Then `Cc1c(Sc2cccc(C(=O)O)c2)c2ccc(Cl)c(F)c2n1CC(=O)N1CC2CCCCC2C1` (stereo not drawn) [Compound 1-98, 3-((6-Chloro-7-fluoro-1-(2-(hexahydro-1H-isoindol-2(3H)-yl)-2-oxoethyl)-2-methyl-1H-indol-3-yl)thio)benzoic acid], with at most 500 nM.
As for `O=C(O)c1cccc(Sc2c(Cl)n(CCN3CC4(CCC4)c4ccccc43)c3c(F)c(Cl)ccc23)c1F` [Compound 5-1, Sodium 3-((2,6-dichloro-7-fluoro-1-(2-(spiro[cyclobutane-1,3′-indolin]-1′-yl)ethyl)-1H-indol-3-yl)thio)-2-fluorobenzoate], the figure is at most 500 nM.
Then `Cc1c(Sc2cccc(C(=O)O)c2)c2ccc(Cl)c(F)c2n1CC(=O)NC(C)C` [Compound 1-1, 3-((6-Chloro-7-fluoro-1-(2-(isopropylamino)-2-oxoethyl)-2-methyl-1H-indol-3-yl)thio)benzoic acid], with at most 500 nM.
`Cc1c(Sc2cccc(C(=O)O)c2)c2ccc(Cl)c(F)c2n1CC(=O)N1CCC2(CC1)CC(C#N)C2` [Compound 1-19, 3-((6-Chloro-1-(2-(2-cyano-7-azaspiro[3.5]nonan-7-yl)-2-oxoethyl)-7-fluoro-2-methyl-1H-indol-3-yl)thio)benzoic acid] came in with an IC50 of at most 500 nM.

Values taken from patent US9850203B2, “Autotaxin inhibitor compounds” (PharmAkea, Inc., priority 2013, dated 2017).
